From US12415794B2 (Edgewise Therapeutics, Inc., priority 2018, dated 2025) come the findings set out here.

Test [1] addresses T1, cardiac myofibrils (myosin ATPase).
T1 construct: frozen myofibril pellets obtained from cardiac tissue; from tissue
Put plainly: Cardiac Myofibril ATPase Assay (counter screen). The format is biochemical. Conditions: myofibrils 1.0 mg/mL, KCl omitted. An outline of the steps: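 Frozen cardiac myofibrils at 1.0 mg/mL final, KCl omitted, in a PK-LDH coupled ATPase assay; ADP production tracked as NADH loss by absorbance at 340 nm. Inhibition taken as reduced rate relative to vehicle controls, with IC50 derived.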
(In general: Counterscreens check selectivity or assay interference.)

In test [2] the target is skeletal myofibrils (myosin ATPase). The experiment in a line: Skeletal Myofibril ATPase Assay. The format is biochemical. The essentials: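 Skeletal myofibril ATPase measured by PK-LDH coupled NADH depletion, absorbance 340 nm read every 1.5-2 min over 45 min. Max−min rate normalized to 1% DMSO vehicle as 100%; IC50 from four-parameter logistic fit with bottom ≥0. Cardiac myofibrils used as counter-screen.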

For orientation: IC50 means the concentration that inhibits the measured activity by half. A low value points to higher potency.

T1 sequence (P12883 whole entry): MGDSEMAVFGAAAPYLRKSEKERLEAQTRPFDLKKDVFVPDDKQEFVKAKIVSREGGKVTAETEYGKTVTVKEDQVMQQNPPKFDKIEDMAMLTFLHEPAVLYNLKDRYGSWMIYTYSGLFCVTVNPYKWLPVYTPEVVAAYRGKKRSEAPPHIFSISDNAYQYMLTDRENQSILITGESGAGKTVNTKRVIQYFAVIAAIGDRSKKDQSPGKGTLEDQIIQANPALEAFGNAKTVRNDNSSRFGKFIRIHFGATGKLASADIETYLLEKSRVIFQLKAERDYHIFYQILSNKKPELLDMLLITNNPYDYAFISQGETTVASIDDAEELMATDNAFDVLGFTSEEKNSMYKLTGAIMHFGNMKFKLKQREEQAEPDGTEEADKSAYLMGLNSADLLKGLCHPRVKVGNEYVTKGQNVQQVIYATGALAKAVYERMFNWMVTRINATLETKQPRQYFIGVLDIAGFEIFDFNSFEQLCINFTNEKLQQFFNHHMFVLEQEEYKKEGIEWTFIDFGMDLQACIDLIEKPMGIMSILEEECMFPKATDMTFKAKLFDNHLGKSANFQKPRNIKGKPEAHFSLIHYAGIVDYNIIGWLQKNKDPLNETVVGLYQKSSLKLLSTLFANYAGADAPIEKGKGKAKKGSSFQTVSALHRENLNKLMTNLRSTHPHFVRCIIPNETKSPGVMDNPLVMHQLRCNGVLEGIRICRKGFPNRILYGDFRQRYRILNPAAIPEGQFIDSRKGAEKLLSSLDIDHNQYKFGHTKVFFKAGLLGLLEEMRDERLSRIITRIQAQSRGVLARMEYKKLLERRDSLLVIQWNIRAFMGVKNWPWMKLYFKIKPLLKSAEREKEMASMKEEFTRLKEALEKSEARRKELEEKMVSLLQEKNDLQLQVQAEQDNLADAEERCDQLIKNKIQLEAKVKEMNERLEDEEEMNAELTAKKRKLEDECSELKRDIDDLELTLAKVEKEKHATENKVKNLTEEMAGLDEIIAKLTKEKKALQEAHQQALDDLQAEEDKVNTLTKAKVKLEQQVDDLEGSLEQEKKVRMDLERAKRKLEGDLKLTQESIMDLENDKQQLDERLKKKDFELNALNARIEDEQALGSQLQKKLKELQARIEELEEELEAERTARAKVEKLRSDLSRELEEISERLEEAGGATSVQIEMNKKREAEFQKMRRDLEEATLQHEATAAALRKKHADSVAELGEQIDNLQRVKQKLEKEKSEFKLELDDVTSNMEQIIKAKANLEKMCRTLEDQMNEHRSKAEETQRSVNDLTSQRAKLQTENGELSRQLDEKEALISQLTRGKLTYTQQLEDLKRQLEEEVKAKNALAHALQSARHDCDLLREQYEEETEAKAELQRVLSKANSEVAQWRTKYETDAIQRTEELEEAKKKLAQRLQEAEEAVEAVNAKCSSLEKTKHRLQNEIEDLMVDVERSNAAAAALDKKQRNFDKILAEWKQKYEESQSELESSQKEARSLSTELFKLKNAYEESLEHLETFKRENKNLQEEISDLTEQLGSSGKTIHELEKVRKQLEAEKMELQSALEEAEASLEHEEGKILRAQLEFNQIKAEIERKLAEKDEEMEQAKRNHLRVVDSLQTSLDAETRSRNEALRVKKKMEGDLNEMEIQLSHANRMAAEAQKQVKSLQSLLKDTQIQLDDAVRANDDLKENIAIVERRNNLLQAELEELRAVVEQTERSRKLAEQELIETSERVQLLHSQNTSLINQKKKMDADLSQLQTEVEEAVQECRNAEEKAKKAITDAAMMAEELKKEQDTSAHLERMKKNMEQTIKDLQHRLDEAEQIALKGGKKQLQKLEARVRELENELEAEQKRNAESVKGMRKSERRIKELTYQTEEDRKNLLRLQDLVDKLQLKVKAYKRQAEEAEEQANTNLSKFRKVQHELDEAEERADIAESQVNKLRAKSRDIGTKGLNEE
T1 sequence (P08590 whole entry partner): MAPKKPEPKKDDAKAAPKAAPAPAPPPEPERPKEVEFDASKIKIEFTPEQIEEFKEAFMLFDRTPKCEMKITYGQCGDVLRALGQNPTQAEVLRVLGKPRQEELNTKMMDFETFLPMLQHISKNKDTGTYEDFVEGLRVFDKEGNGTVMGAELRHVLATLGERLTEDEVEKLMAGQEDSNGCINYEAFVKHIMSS
T1 sequence (P10916 whole entry partner): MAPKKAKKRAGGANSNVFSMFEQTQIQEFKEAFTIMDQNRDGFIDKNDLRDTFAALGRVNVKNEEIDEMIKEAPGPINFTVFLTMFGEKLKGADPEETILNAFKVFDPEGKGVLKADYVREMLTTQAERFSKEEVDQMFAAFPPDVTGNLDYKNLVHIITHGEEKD

Consider `COc1ccc(-c2ccc(=O)n(CC(=O)Nc3cccc4[nH]ccc34)n2)c(F)c1` [IIIb-2, 2-(3-(2-fluoro-4-methoxyphenyl)-6-oxopyridazin-1(6H)-yl)-N-(1H-indol-4-yl)acetamide], for which the IC50 in test [1] (Table 5C) is more than 100 µM; in test [2] (Table 4C), less than 10 µM.
Take `O=C(Cn1nc(-c2ccc(OC(F)F)cc2)ccc1=O)NCC(F)(F)F` [II-11, 2-(3-(4-(difluoromethoxy)phenyl)-6-oxopyridazin-1(6H)-yl)-N-(2,2,2-trifluoroethyl) acetamide]: the concentration for half-maximal inhibition (IC50) in test [1] (Table 5B) is more than 100 µM; in test [2] (Table 4B), 10 to 100 µM.
`CCNC(=O)Cn1nc(-c2ccc(N(C)C3CCC3)nc2)ccc1=O` [Compound I-61, 2-(3-(6-(cyclobutyl(methyl)amino)pyridin-3-yl)-6-oxopyridazin-1(6H)-yl)-N-ethylacetamide]: the IC50 is 10 to 100 µM in test [1] (Table 5A) and less than 10 µM in test [2] (Table 4A).
Regarding `COc1ccc(-c2ccc(=O)n(CC(=O)NCc3ccc(OC)c(OC)c3)n2)cc1` [IIIb-49, N-(3,4-dimethoxybenzyl)-2-(3-(4-methoxyphenyl)-6-oxopyridazin-1(6H)-yl)acetamide], the IC50 in test [1] (Table 5C) and in test [2] (Table 4C) was more than 100 µM each time.
Regarding `CCNC(=O)Cn1nc(-c2ccc(OC)cc2)ccc1=O` [IIIa-3, N-ethyl-2-(3-(4-methoxyphenyl)-6-oxopyridazin-1(6H)-yl)acetamide], the IC50 in test [1] (Table 5C) was more than 100 µM; in test [2] (Table 4C) it was less than 10 µM.
`CCNC(=O)Cn1nc(-c2cnc(NC34CC(F)(C3)C4)nc2)ccc1=O` [Compound I-57, N-ethyl-2-(3-(2-((3-fluorobicyclo[1.1.1]pentan-1-yl)amino)pyrimidin-5-yl)-6-oxopyridazin-1(6H)-yl)acetamide]: the 50% inhibitory concentration (IC50) in test [1] (Table 5A) is more than 100 µM; in test [2] (Table 4A), less than 10 µM.
Take `COc1ccc(-c2ccc(=O)n(CC(=O)NC3CCCC3)n2)cc1OC` [IIIb-45, N-cyclopentyl-2-(3-(3,4-dimethoxyphenyl)-6-oxopyridazin-1(6H)-yl)acetamide]: the IC50 in test [1] (Table 5C) and in test [2] (Table 4C) was more than 100 µM in each case.
Take `CCC1CCC(CNC(=O)Cn2nc(-c3ccccc3)ccc2=O)CC1` (stereo not shown) [IIIc-55, N-((4-ethylcyclohexyl)methyl)-2-(6-oxo-3-phenylpyridazin-1(6H)-yl)acetamide]: the concentration for half-maximal inhibition (IC50) is more than 100 µM in test [1] (Table 5C) and 10 to 100 µM in test [2] (Table 4C).
`COc1ccc(-c2ccc(=O)n(CC(=O)NCCC(C)C)n2)cc1` [IIIb-48, N-isopentyl-2-(3-(4-methoxyphenyl)-6-oxopyridazin-1(6H)-yl)acetamide]: the IC50 in test [1] (Table 5C) and in test [2] (Table 4C) was more than 100 µM each time.
For `CCNC(=O)Cn1nc(-c2ccc(NC3CC(F)(F)C3)nc2)ccc1=O` [Compound I-74, 2-(3-(6-((3,3-difluorocyclobutyl)amino)pyridin-3-yl)-6-oxopyridazin-1(6H)-yl)-N-ethylacetamide], the IC50 is more than 100 µM in test [1] (Table 5A) and 10 to 100 µM in test [2] (Table 4A).
Consider `O=C(Cn1nc(-c2ccc(Cl)cc2)ccc1=O)Nc1ccccc1F` [IIIc-27, 2-(3-(4-chlorophenyl)-6-oxopyridazin-1(6H)-yl)-N-(2-fluorophenyl)acetamide], for which the figures for the IC50 in test [1] (Table 5C) and in test [2] (Table 4C) were more than 100 µM and 10 to 100 µM, respectively.
As to `COc1ccc(-c2ccc(=O)n(CC(=O)NCc3ccon3)n2)cc1` [IIIa-26], the IC50 in test [1] (Table 5C) was more than 100 µM; in test [2] (Table 4C), 10 to 100 µM.
As to `COc1ccc(-c2ccc(=O)n(CC(=O)NCc3ccccc3)n2)cc1` [IIIb-20, N-benzyl-2-(3-(4-methoxyphenyl)-6-oxopyridazin-1(6H)-yl)acetamide], the concentration for half-maximal inhibition (IC50) in test [1] (Table 5C) is more than 100 µM; in test [2] (Table 4C), 10 to 100 µM.
Consider `O=C(Cn1nc(-c2ccccc2)ccc1=O)Nc1ccc2c(c1)OCCO2` [IIIc-64, N-(2,3-dihydrobenzo[b][1,4]dioxin-6-yl)-2-(6-oxo-3-phenylpyridazin-1(6H)-yl)acetamide], for which the IC50 in test [1] (Table 5C) and in test [2] (Table 4C) was more than 100 µM in each case.
